The text below walks through data of patent US9221795B2, “Phosphatidylinositol 3-kinase inhibitors” (Gilead Sciences, Inc., priority 2013, dated 2015).

A value given as a limit tells only on which side of the number the result lay.

One test concerns the target PI3Kδ (Homo sapiens (Human), UniProt O00329). The test is described as follows: Enzymatic activity of PI3K isoforms, TR-FRET assay (PI3Kδ). In kind it is biochemical. The following applies: 2× Km ATP, geometric mean if more than one value. On the procedure: Enzymatic activity of the class I PI3K isoforms in the presence of the compounds of Table 1 and Compounds X, Y and Z was measured using a time-resolved fluorescence resonance energy transfer (TR-FRET) assay. The TR-FRET assay was used to monitor formation of the product 3,4,5-inositol triphosphate molecule (PIP3) as it competed with fluorescently labeled PIP3 for binding to the GRP-1 pleckstrin homology domain protein. An increase in […] product results in a decrease in TR-FRET signal as the labeled fluorophore is displaced from the GRP-1 protein binding site.
Class I PI3K isoforms were expressed and purified as heterodimeric recombinant proteins. All assay reagents and buffers for the TR-FRET assay were purchased from Millipore. PI3K isoforms were assayed under initial rate conditions in the presence of 25 mM Hepes (pH 7.4), and 2× Km ATP (75-500 μM), 2 μM PIP2, 5% glycerol, 5 mM MgCl2, 50 mM NaCl, 0.05% (v/v) Chaps, 1 mM dithiothreitol, 1% (v/v) DMSO at the following concentrations for each isoforms: PI3Kα, PI3Kβ, and PI3Kδ between 25 and 50 pM, and PI3Kγ at 2 nM. After an assay reaction time of 30 minutes at 25° C., reactions were terminated with a final concentration of 10 mM EDTA, 10 nM labeled-PIP3, and 35 nM Europium labeled GRP-1 detector protein before reading TR-FRET on an Envision plate reader (Ex: 340 nm; Em: 615/665 nm; […] delay and 500 μs read window).
Data were normalized based on positive ([…] wortmanin) and negative (DMSO) controls. α, β, δ, and γ IC50 values were calculated from the fit of the dose-response curves to a four-parameter equation. All IC50 values represent geometric mean values if more than one value was obtained. IC50 values were reported in units of nM.
In general terms: In TR-FRET formats the signal depends on donor and acceptor labels being close together.

A further test deals with basophils. The test is described as follows: Basophil activation in human whole blood (Flow2 CAST kit, CD63 flow cytometry). In kind it is cell-based. The following applies: human whole blood, basophils activated with anti-FcεRI mAb or fMLP, percent CD63 positive cells. The protocol:
Effect on basophil activation was measured in human whole blood using the Flow2 CAST® kit (Buhlmann Laboratories AG, Baselstrasse, Switzerland) following the protocol provided by the manufacturer with minor modifications. Human whole blood was collected into K2-EDTA venipuncture tubes. Whole blood samples were treated with either DMSO (0.3% final) or a serial dilution of compounds in DMSO for 60 minutes at 37° C. Basophils were then activated either with anti-FcεRI mAb or with fMLP. To activate basophils using the anti-FcεRI mAb; 50 μL of whole blood was mixed with 110 μL of stimulation buffer (B-BAT-STB) and 20 μl of anti-FcεRI (B-BAT-STCON). To activate basophils with fMLP; 50 μL of whole blood was mixed with 80 μL of stimulation buffer (B-BAT-STB) and 50 μL of fMLP (B-CCR-FMLP). Stimulation buffer was used as a negative control. 20 μL of the staining reagent (combination of anti-human CD63-FITC and anti-human CCR3-PE mAbs) was then added to each tube. The tubes were mixed gently and incubated for 25 minutes at 37° C. Subsequently, erythrocytes were lysed and fixed by the addition of 2 mL of lysing solution (B-BAT-LYR) for 10 minutes at room temperature. Cells were pelleted by centrifugation at 1200 rpm for 10 minutes at room temperature in a swing-out rotor. Supernatant was aspirated and cell pellet resuspended in 400 μL of wash buffer. Flow cytometric analysis of the basophil activation was performed on a FC500MPL flow cytometer (Beckman Coulter Inc., Fullerton, Calif.). CCR3-staining and side scatter were applied to gate at least 200 basophils that expressed a high density of CCR3. The percent CD63 positive cells within the gated basophil population were determined in different treatment groups and normalized to the vehicle control (0.3% DMSO) with anti-FcεRI mAb of fMLP stimulus as 100%. Final compound concentration was adjusted to correct for dilution effect of added reagents. The EC50 values were calculated from the analysis of the dose-response curves to a four-parameter equation.
(In general: Flow cytometry measures light scatter and fluorescence of single cells or particles in a stream.)

PI3Kδ, sequence (O00329 whole entry, the tested form may be a part, canonical isoform): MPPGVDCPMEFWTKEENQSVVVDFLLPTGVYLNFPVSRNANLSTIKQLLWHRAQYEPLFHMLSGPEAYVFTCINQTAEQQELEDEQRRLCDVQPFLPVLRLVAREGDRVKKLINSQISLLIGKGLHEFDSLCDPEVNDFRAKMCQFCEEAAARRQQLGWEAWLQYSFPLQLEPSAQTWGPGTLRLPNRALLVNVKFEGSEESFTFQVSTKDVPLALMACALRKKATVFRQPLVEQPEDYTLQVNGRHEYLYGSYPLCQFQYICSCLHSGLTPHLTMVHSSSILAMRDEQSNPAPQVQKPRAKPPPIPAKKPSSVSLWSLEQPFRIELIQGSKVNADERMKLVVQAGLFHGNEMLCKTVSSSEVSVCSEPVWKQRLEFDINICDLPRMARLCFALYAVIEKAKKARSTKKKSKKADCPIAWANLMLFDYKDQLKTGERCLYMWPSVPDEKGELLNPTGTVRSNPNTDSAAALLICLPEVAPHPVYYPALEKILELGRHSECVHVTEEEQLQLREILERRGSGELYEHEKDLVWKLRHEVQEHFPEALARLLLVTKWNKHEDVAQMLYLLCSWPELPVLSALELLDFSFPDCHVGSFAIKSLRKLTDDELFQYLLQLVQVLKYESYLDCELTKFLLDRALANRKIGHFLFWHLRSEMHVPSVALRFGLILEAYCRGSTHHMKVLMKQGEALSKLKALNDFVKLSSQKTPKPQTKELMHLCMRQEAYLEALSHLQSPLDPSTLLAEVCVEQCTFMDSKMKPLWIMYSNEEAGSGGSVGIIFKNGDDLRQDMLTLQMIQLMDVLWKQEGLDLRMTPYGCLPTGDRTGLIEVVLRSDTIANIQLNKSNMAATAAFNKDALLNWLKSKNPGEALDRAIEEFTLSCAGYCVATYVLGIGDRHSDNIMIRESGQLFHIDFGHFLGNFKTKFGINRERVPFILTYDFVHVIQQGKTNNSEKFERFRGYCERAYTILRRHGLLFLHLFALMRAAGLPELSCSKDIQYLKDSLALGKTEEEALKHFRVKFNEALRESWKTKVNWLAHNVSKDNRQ
PI3Kδ, sequence (P27986 whole entry partner, the tested form may be a part, canonical isoform): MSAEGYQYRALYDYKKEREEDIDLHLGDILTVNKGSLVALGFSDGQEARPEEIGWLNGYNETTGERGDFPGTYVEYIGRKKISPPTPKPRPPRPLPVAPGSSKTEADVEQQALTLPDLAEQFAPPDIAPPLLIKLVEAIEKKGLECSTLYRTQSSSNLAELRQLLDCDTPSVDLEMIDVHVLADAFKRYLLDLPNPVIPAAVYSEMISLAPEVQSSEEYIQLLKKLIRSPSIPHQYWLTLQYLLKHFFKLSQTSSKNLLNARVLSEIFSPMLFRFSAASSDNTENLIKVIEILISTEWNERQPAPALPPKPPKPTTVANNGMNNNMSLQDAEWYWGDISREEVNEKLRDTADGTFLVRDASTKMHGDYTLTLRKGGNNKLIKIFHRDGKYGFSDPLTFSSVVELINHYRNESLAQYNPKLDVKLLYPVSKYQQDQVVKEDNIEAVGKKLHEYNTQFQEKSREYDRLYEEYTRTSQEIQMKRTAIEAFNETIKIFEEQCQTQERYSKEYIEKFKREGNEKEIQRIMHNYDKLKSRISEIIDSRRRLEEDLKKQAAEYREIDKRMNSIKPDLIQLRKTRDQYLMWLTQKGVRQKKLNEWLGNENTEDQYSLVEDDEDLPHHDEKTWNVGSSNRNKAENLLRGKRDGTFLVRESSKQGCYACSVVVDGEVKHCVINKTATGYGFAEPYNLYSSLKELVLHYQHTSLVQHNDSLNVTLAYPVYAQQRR

Broadly, the IC50 is the concentration that gives 50% inhibition. Low values mean higher potency, high ones lower potency. Broadly, the EC50 is the concentration that produces a half-maximal response. Consider `Cc1ncccc1-n1c([C@H](C)Nc2nc(N)nc(N)c2C#N)nc2cccc(Cl)c2c1=O` (atropisomer, axis not shown) [Compound 38, (S)-2,4-diamino-6-(1-(5-chloro-3-(2-methylpyridin-3-yl)-4-oxo-3,4-dihydroquinazolin-2-yl)ethylamino)pyrimidine-5-carbonitrile], for which the IC50 against PI3Kδ was found to be 13 nM. The EC50 in the test with basophils (Homo sapiens, class symbol) was 1 to 10 nM; in the test on basophils (geometric mean), 9 nM.

Take `Cc1ccncc1-n1c([C@H](C)Nc2nc(N)nc(N)c2C#N)nc2cccc(Cl)c2c1=O` (atropisomer, axis not shown) [Compound 40, (S)-2,4-diamino-6-(1-(5-chloro-3-(4-methylpyridin-3-yl)-4-oxo-3,4-dihydroquinazolin-2-yl)ethylamino)pyrimidine-5-carbonitrile]: the IC50 against PI3Kδ came out at 9 nM. Also, the EC50 in the test on basophils (Homo sapiens, class symbol) was 1 to 10 nM; in the test with basophils (Homo sapiens, geometric mean), 7 nM.

Turning to `Cc1ccncc1-n1c([C@H](C)Nc2nc(N)nc(N)c2C#N)nc2ccc(F)c(Cl)c2c1=O` (atropisomer, axis not shown) [Compound 42, (S)-2,4-diamino-6-(1-(5-chloro-6-fluoro-3-(4-methylpyridin-3-yl)-4-oxo-3,4-dihydroquinazolin-2-yl)ethylamino)pyrimidine-5-carbonitrile], on PI3Kδ, half-maximal inhibition (IC50) required 27 nM. Further, the EC50 in the test on basophils (Homo sapiens, class symbol) is 1 to 10 nM; in the test on basophils (geometric mean), 8 nM.

On to `Cc1ccncc1-n1c([C@H](C)Nc2nc(N)nc(N)c2C#N)nc2ccc(F)c(Cl)c2c1=O` (atropisomer, axis not shown) [Compound 43, (S)-2,4-diamino-6-(1-(5-chloro-6-fluoro-3-(4-methylpyridin-3-yl)-4-oxo-3,4-dihydroquinazolin-2-yl)ethylamino)pyrimidine-5-carbonitrile], for which, on PI3Kδ, half-maximal inhibition (IC50) required 4 nM. Further, the EC50 with basophils (class symbol) is 1 to 10 nM; in the test with basophils (geometric mean) it was 2 nM.

Take `N#Cc1c(N)nc(N)nc1N[C@@H](CC1CC1)c1nc2cccc(Cl)c2c(=O)n1-c1cccnc1` [Compound 4, (S)-2,4-diamino-6-(1-(5-chloro-4-oxo-3-(pyridin-3-yl)-3,4-dihydroquinazolin-2-yl)-2-cyclopropylethylamino)pyrimidine-5-carbonitrile]: on PI3Kδ, the IC50 came out at 5 nM. Moreover, the concentration for a half-maximal effect (EC50) in the test with basophils (Homo sapiens, class symbol) was 10 to 50 nM; with basophils (Homo sapiens, geometric mean) it was 22 nM.

At PI3Kδ, `Cc1cccc2nc([C@H](C)Nc3nc(N)nc(N)c3C#N)n(-c3cccnc3)c(=O)c12` [Compound 7, (S)-2,4-diamino-6-(1-(5-methyl-4-oxo-3-(pyridin-3-yl)-3,4-dihydroquinazolin-2-yl)ethylamino)pyrimidine-5-carbonitrile] came in with an IC50 of 0.4 nM. The EC50 in the test with basophils (Homo sapiens, class symbol) was less than 1 nM; in the test with basophils (Homo sapiens, geometric mean) it was 0.3 nM.

In turn, `C[C@H](Nc1nc(N)nc(N)c1C#N)c1nc2cccc(S(C)(=O)=O)c2c(=O)n1-c1cccnc1` [Compound 8, (S)-2,4-diamino-6-(1-(5-(methylsulfonyl)-4-oxo-3-(pyridin-3-yl)-3,4-dihydroquinazolin-2-yl)ethylamino)pyrimidine-5-carbonitrile] returned an IC50 at PI3Kδ of 9 nM. Moreover, the EC50 is greater than 50 nM with basophils (Homo sapiens, class symbol) and 100 nM with basophils (Homo sapiens, geometric mean).

On PI3Kδ, `C[C@H](Nc1nc(N)nc(N)c1C#N)c1nc2cccc(C#N)c2c(=O)n1-c1cccnc1` [Compound 10, (S)-2-(1-((2,6-diamino-5-cyanopyrimidin-4-yl)amino)ethyl)-4-oxo-3-(pyridin-3-yl)-3,4-dihydroquinazoline-5-carbonitrile] gave an IC50 of 9 nM. Also, the EC50 in the test with basophils (Homo sapiens, class symbol) was 10 to 50 nM; in the test on basophils (Homo sapiens, geometric mean), 17 nM.

`C[C@H](Nc1nc(N)nc(N)c1C#N)c1nc2cccc(Cl)c2c(=O)n1-c1cncc(Cl)c1` [Compound 13, (S)-2,4-diamino-6-(1-(5-chloro-3-(5-chloropyridin-3-yl)-4-oxo-3,4-dihydroquinazolin-2-yl)ethylamino)pyrimidine-5-carbonitrile] gave an IC50 against PI3Kδ of 8 nM. Besides, the EC50 in the test with basophils (Homo sapiens, class symbol) is 1 to 10 nM; in the test with basophils (Homo sapiens, geometric mean), 4 nM.

As to `Cc1cncc(-n2c([C@H](C)Nc3nc(N)nc(N)c3C#N)nc3cccc(Cl)c3c2=O)c1` [Compound 16, (S)-2,4-diamino-6-(1-(5-chloro-3-(5-methylpyridin-3-yl)-4-oxo-3,4-dihydroquinazolin-2-yl)ethylamino)pyrimidine-5-carbonitrile], the IC50 against PI3Kδ came out at 1 nM. In addition, the EC50 was less than 1 nM in the test on basophils (Homo sapiens, class symbol) and 0.7 nM in the test with basophils (Homo sapiens, geometric mean).

For `Cc1cncc(-n2c([C@@H](Nc3nc(N)nc(N)c3C#N)C3CC3)nc3cccc(Cl)c3c2=O)c1` [Compound 17, (S)-2,4-diamino-6-((5-chloro-3-(5-methylpyridin-3-yl)-4-oxo-3,4-dihydroquinazolin-2-yl)(cyclopropyl)methylamino)pyrimidine-5-carbonitrile], at PI3Kδ, the IC50 came out at 4 nM. In addition, the EC50 is 1 to 10 nM in the test on basophils (Homo sapiens, class symbol) and 5 nM in the test on basophils (Homo sapiens, geometric mean).

The compound `C[C@H](Nc1nc(N)nc(N)c1C#N)c1nc2cccc(Cl)c2c(=O)n1-c1cncc(C(F)(F)F)c1` [Compound 18, (S)-2,4-diamino-6-(1-(5-chloro-4-oxo-3-(5-(trifluoromethyl)pyridin-3-yl)-3,4-dihydroquinazolin-2-yl)ethylamino)pyrimidine-5-carbonitrile] had an IC50 against PI3Kδ of 18 nM. For the same compound, the EC50 in the test on basophils (Homo sapiens, class symbol) is 10 to 50 nM; in the test with basophils (Homo sapiens, geometric mean), 22 nM.

In the case of `C[C@H](Nc1nc(N)nc(N)c1C#N)c1nc2c(F)ccc(F)c2c(=O)n1-c1cccnc1` [Compound 25, (S)-2,4-diamino-6-(1-(5,8-difluoro-4-oxo-3-(pyridin-3-yl)-3,4-dihydroquinazolin-2-yl)ethylamino)pyrimidine-5-carbonitrile], the IC50 on PI3Kδ came out at 8 nM. In addition, the EC50 is 10 to 50 nM in the test with basophils (Homo sapiens, class symbol) and 11 nM with basophils (Homo sapiens, geometric mean).

In turn, `C[C@H](Nc1nc(N)nc(N)c1C#N)c1nc2c(F)ccc(C#N)c2c(=O)n1-c1cccnc1` [Compound 34, (S)-2-(1-((2,6-diamino-5-cyanopyrimidin-4-yl)amino)ethyl)-8-fluoro-4-oxo-3-(pyridin-3-yl)-3,4-dihydroquinazoline-5-carbonitrile] registered an IC50 at PI3Kδ of 21 nM. Also, the half-maximal effective concentration (EC50) with basophils (Homo sapiens, class symbol) is 10 to 50 nM; with basophils (Homo sapiens, geometric mean) it was 22 nM.

In the case of `CC[C@H](Nc1nc(N)nc(N)c1C#N)c1nc2c(F)ccc(C#N)c2c(=O)n1-c1cccnc1` [Compound 35, (S)-2-(1-((2,6-diamino-5-cyanopyrimidin-4-yl)amino)propyl)-8-fluoro-4-oxo-3-(pyridin-3-yl)-3,4-dihydroquinazoline-5-carbonitrile], the IC50 at PI3Kδ stood at 35 nM. The EC50 with basophils (Homo sapiens, class symbol) was greater than 50 nM; with basophils (Homo sapiens, geometric mean), 62 nM.

On PI3Kδ, `C[C@H](Nc1nc(N)nc(N)c1C#N)c1nc2ccc(F)c(Cl)c2c(=O)n1-c1cccnc1` [Compound 36, (S)-2,4-diamino-6-(1-(5-chloro-6-fluoro-4-oxo-3-(pyridin-3-yl)-3,4-dihydroquinazolin-2-yl)ethylamino)pyrimidine-5-carbonitrile] came in with an IC50 of 4 nM. The EC50 in the test on basophils (Homo sapiens, class symbol) was 1 to 10 nM; in the test on basophils (Homo sapiens, geometric mean), 2 nM.
